Source: patent US7419657B2, “Treatment of atherosclerotic disorders” (priority 2001, dated 2008)
Where a name gives a salt, the structure may show the parent alone. Read-outs that look alike come from different tables or passages of the source.

Key:
[1] = tested on: anti-Chlamydia abzymes; assay type: biochemical, human; set-up: key to In-vitro Inhibition: + = inhibition; − = no inhibition; conditions: for Anti-Abzyme activity: control 21.7; for Result (inhibition of anti-Chlamydia abzymes) / Lipid oxidising activity of anti-Chlamydia abzymes: 10 μM of each Me2+-binding agent; for Lipid oxidising activity of anti-Chlamydia abzymes: control 24.3
[2] = tested on: lesion IgG; assay: LDL peroxidation by lesion IgG with tested antioxidants; assay type: biochemical, human; conditions: LDL 480 μg of protein; +0.1 M antioxidant; control 0.49 ± 0.023
[3] = tested on: Chlamydia; assay type: biochemical, Chlamydia pneumoniae or Chlamydia Psittaci

Q: For `O=[N+]([O-])OCC(CO[N+](=O)[O-])O[N+](=O)[O-]` [Glyceryl Trinitrate], which Anti-Abzyme activity ([1]; drug 4.4 μM) is on record?
A: 0 μM MDA/ml

Q: What about the Anti-Abzyme activity ([1]; drug 22 μM) of the same compound?
A: 0 μM MDA/ml

Q: And the Anti-Abzyme activity ([1]; drug 44 μM)?
A: 0 μM MDA/ml

Q: What about the Anti-Abzyme activity ([1]; drug 220 μM) of the same compound?
A: 0 μM MDA/ml

Q: Which results are given for `O=[N+]([O-])O[C@H]1CO[C@H]2[C@@H]1OC[C@H]2O[N+](=O)[O-]` [Isosorbide Dinitrate]?
A: Anti-Abzyme activity ([1]; drug 42 μM): 0 μM MDA/ml; Anti-Abzyme activity ([1]; drug 211 μM): 0 μM MDA/ml

Q: How did the “Level of MDA production by 0.82 μg of lesion IgG” value [2] turn out when `O=C[O-].[Na+]` [sodium formate] was run?
A: 0 µM

Q: With `N.N.O=S(=O)(O)O` [ammonium sulphate] as the compound, how does the “lipid oxidising reaction in the test system” value [3] read?
A: no lipid oxidising reaction

Q: Which Anti-Abzyme activity ([1]; drug 6.5 μM) does the source give for `CCC[C@@H]1C[C@@H](C(=O)N[C@@H]([C@H]2O[C@H](SC)[C@H](O)[C@@H](O)[C@H]2O)[C@@H](C)O)N(C)C1` [Lincomycin Hydrochloride] here?
A: 28.5 μM MDA/ml

Q: And the Anti-Abzyme activity ([1]; drug 13 μM)?
A: 30.3 μM MDA/ml

Q: With Triton X-100 as the compound, how does the “development of lipid oxidation reaction” value [3] read?
A: completely abrogated

Q: And the “oxidation of the lipids in the bacteria by the extracted abzymes” value [3]?
A: abolished

Q: Which “In-vitro Inhibition” value [1] does the source give for `O=C(O)CN(CCN(CC(=O)O)CC(=O)O)CCN(CC(=O)O)CC(=O)O` [DTPA] here?
A: −

Q: What about the “Result (inhibition of anti-Chlamydia abzymes)” value [1] of the same compound?
A: Negative

Q: And the “Lipid oxidising activity of anti-Chlamydia abzymes” value [1]?
A: 45.2 μM MDA/ml

Q: For Igepal CA-630, which “development of lipid oxidation reaction” value [3] is on record?
A: completely abrogated

Q: What about the “oxidation of the lipids in the bacteria by the extracted abzymes” value [3] of the same compound?
A: abolished

Q: How did the “In-vitro Inhibition” value [1] turn out when `O=C(O)c1ccccn1` [Picolinic acid] was run?
A: +

Q: What about the “Result (inhibition of anti-Chlamydia abzymes)” value [1] of the same compound?
A: Positive

Q: And the “Lipid oxidising activity of anti-Chlamydia abzymes” value [1]?
A: 0 μM MDA/ml

Q: Which “lipid oxidising reaction in the test system” value [3] does the source give for `C=O` [formalin] here?
A: no lipid oxidising reaction

Q: Which Anti-Abzyme activity ([1]; drug 0.1 mg/ml) does the source give for Heparin here?
A: 19.7 μM MDA/ml
